Molecular target: T1, human EP2 (PTGER2) (Homo sapiens, UniProt P43116)
T1 construct: Cayman Chemical (Human EP2 Reporter Assay Kit)
Test: EP2 antagonist assay (HEK-293 CNG membrane potential cAMP assay / 293T SEAP reporter assay, PGE2-stimulated)
Format: cell-based
Conditions: EP2 antagonist activity; concentration for 50% inhibition of signal compared to DMSO
In short: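 Two formats. In a CRE-SEAP reporter assay, reverse-transfected 293T cells received compound with PGE2 (13 nM final) for 6-8 h, then luminescence was read. In the ACTOne CNG format, HEK-293 cells were preincubated with compound for 15 min at RT, stimulated with 5 nM PGE2 for 30 min, and read by membrane-potential dye fluorescence. IC50 was taken versus DMSO.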

T1 sequence (P43116 whole entry): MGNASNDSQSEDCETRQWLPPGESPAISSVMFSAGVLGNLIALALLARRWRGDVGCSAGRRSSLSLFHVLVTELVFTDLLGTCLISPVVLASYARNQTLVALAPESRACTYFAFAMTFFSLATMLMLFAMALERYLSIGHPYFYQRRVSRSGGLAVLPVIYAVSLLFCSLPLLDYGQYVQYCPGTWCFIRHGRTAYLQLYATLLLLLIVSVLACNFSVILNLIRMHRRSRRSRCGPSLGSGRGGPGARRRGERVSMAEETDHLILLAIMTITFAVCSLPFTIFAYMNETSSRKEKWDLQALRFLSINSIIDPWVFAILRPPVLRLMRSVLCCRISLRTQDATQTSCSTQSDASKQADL

IC50 [nM] | SMILES
100 to 1000 | CN(c1ccccc1)c1cc(C(=O)NCc2ccc(C(=O)O)cc2)c2c(ccn2Cc2ccc(C(F)(F)F)cc2)c1 [Example 45, 4-((5-(methyl(phenyl)amino)-1-(4-(trifluoromethyl)benzyl)-1H-indole-7-carboxamido)methyl)benzoic acid]
≥ 1000 | N#Cc1cccc(-c2ccc(C(=O)NC3(c4ccc(C(=O)O)cc4)CC3)c3c2ccn3Cc2ccc(C(F)(F)F)cc2)c1 [Example 37, 4-(1-(4-(3-cyanophenyl)-1-(4-(trifluoromethyl)benzyl)-1H-indole-7-carboxamido)cyclopropyl)benzoic acid]
100 to 1000 | O=C(O)c1ccc(C2(NC(=O)c3cc(-c4ccccc4)cc4ccn(Cc5ccc(C(F)(F)F)cc5)c34)CC2)cc1 [Example 6, 4-(1-(5-phenyl-1-(4-(trifluoromethyl)benzyl)-1H-indole-7-carboxamido)cyclopropyl)benzoiacid]
100 to 1000 | Cn1cc(Sc2ccc(C(F)(F)F)cc2)c2c(C(=O)NCc3ccc(C(=O)O)cc3)cc(-c3cccc(C(N)=O)c3)cc21 [Example 121, 4-((6-(3-carbamoylphenyl)-1-methyl-3-((4-(trifluoromethyl)phenyl)thio)-1H-indole-4-carboxamido)methyl)benzoic acid]
≥ 1000 | O=C(O)c1ccc(CNC(=O)c2ccc(-c3ccc(F)cc3)c3ccn(Cc4ccc(C(F)(F)F)cc4)c23)cc1 [Example 25, 4-((4-(4-fluorophenyl)-1-(4-(trifluoromethyl)benzyl)-1H-indole-7-carboxamido)methyl)benzoic acid]
< 100 | N#Cc1cccc(-c2cc(C(=O)NCc3ccc(C(=O)O)cc3)c3c(ccn3Cc3cccc(C(F)(F)F)c3)c2)c1 [Example 126, 4-((5-(3-cyanophenyl)-1-(3-(trifluoromethyl)benzyl)-1H-indole-7-carboxamido)methyl)benzoic acid]
100 to 1000 | O=C(O)c1ccc(CNC(=O)c2cc(-c3cccc(C(F)(F)F)c3)cc3ccn(Cc4ccc(C(F)(F)F)cc4)c23)cc1 [Example 10, 4-((1-(4-(trifluoromethyl)benzyl)-5-(3-(trifluoromethyl)phenyl)-1H-indole-7-carboxamido)methyl)benzoic acid]
100 to 1000 | O=C(O)c1ccc(CNC(=O)c2cc(-c3cccnc3)cc3ccn(Cc4cccc(C(F)(F)F)c4)c23)cc1 [Example 123, 4-((5-(pyridin-3-yl)-1-(3-(trifluoromethyl)benzyl)-1H-indole-7-carboxamido)methyl)benzoic acid]
100 to 1000 | O=C(O)c1ccc(CNC(=O)c2ccc(-c3ccccc3)c3ccn(Cc4ccc(C(F)(F)F)cc4)c23)cc1 [Example 26, 4-((4-phenyl-1-(4-(trifluoromethyl)benzyl)-1H-indole-7-carboxamido)methyl)benzoic acid]
≥ 1000 | O=C(O)c1ccc(CNC(=O)c2cc(Nc3ccccc3)cc3ccn(Cc4ccc(C(F)(F)F)cc4)c23)cc1 [Example 47, 4-((5-(phenylamino)-1-(4-(trifluoromethyl)benzyl)-1H-indole-7-carboxamido)methyl)benzoic acid]
< 100 | O=C(O)c1ccc(CNC(=O)c2cc(-c3ccc(F)cc3)cc3ccn(Cc4ccc5ccccc5c4)c23)cc1 [Example 160, 4-((5-(4-fluorophenyl)-1-(naphthalen-2-ylmethyl)-1H-indole-7-carboxamido)methyl)benzoic acid]
< 100 | NS(=O)(=O)c1cccc(-c2cc(C(=O)NCc3ccc(C(=O)O)cc3)c3c(ccn3Cc3ccc(C(F)(F)F)cc3)c2)c1 [Example 83, 4-((5-(3-sulfamoylphenyl)-1-(4-(trifluoromethyl)benzyl)-1H-indole-7-carboxamido)methyl)benzoic acid]
≥ 1000 | O=C(O)c1ccc(C2(NC(=O)c3cc(-c4cccc(C(F)(F)F)c4)cc4ccn(Cc5ccc(C(F)(F)F)cc5)c34)CC2)cc1 [Example 20, 4-(1-(1-(4-(trifluoromethyl)benzyl)-5-(3-(trifluoromethyl)phenyl)-1H-indole-7-carboxamido)cyclopropyl)benzoic acid]
100 to 1000 | O=C(O)c1ccc(C2(NC(=O)c3ccc(Nc4ccc(F)c(Cl)c4)c4ccn(Cc5ccc(C(F)(F)F)cc5)c34)CC2)cc1 [Example 65, 4-(1-(4-((3-chloro-4-fluorophenyl)amino)-1-(4-(trifluoromethyl)benzyl)-1H-indole-7-carboxamido)cyclopropyl)benzoic acid]
≥ 1000 | O=C(O)c1ccc(CNC(=O)c2ccc(-c3cccc(C(F)(F)F)c3)c3ccn(Cc4ccc(C(F)(F)F)cc4)c23)cc1 [Example 24, 4-((1-(4-(trifluoromethyl)benzyl)-4-(3-(trifluoromethyl)phenyl)-1H-indole-7-carboxamido)-methyl)benzoic acid]
< 100 | N#Cc1ccc(-c2cc(C(=O)NCc3ccc(C(=O)O)cc3)c3c(ccn3Cc3ccc(C(F)(F)F)cc3)c2)cc1 [Example 81, 4-((5-(4-cyanophenyl)-1-(4-(trifluoromethyl)benzyl)-1H-indole-7-carboxamido)methyl)benzoic acid]

IC50 [nM] | SMILES
< 100 | O=C(O)c1ccc(CNC(=O)c2cc(-c3ccccc3)cc3nnn(Cc4ccc(C(F)(F)F)cc4)c23)cc1 [Example 174, ((5-phenyl-1-(4-(trifluoromethyl)benzyl)-1H-benzo[d][1,2,3]triazole-7-carboxamido)methyl)benzoic acid]
≥ 1000 | C[C@@H](NC(=O)c1cc(-c2ccc(F)cc2)cc2ccn(Cc3ccc(C(F)(F)F)cc3)c12)c1ccc(C(=O)O)cc1 [Example 3, (R)-4-(1-(5-(4-fluorophenyl)-1-(4-(trifluoromethyl)benzyl)-1H-indole-7-carboxamido)ethyl)benzoic acid]
< 100 | C[C@H](NC(=O)c1cc(-c2ccc(F)cc2)cc2ccn(Cc3ccc4ccccc4n3)c12)c1ccc(C(=O)O)cc1 [Example 144, (S)-4-(1-(5-(4-fluorophenyl)-1-(quinolin-2-ylmethyl)-1H-indole-7-carboxamido)ethyl)benzoic acid]
< 100 | O=C(O)c1ccc(CNC(=O)c2cc(-c3ccc(F)cc3)cc3ccn(Cc4ccc(-c5ccc(F)cc5)cc4)c23)cc1 [Example 209, 4-((1-((4′-fluoro-[1,1′-biphenyl]-4-yl)methyl)-5-(4-fluorophenyl)-1H-indole-7-carboxamido)methyl)benzoic acid]
≥ 1000 | O=C(O)c1ccc(C2(NC(=O)c3ccc(-c4ccc(F)c(F)c4)c4ccn(Cc5ccc(C(F)(F)F)cc5)c34)CC2)cc1 [Example 38, 4-(1-(4-(3,4-difluorophenyl)-1-(4-(trifluoromethyl)benzyl)-1H-indole-7-carboxamido)cyclopropyl)benzoic acid]
< 100 | NC(=O)c1cccc(-c2cc(C(=O)NCc3ccc(C(=O)O)cc3)c3c(ccn3Cc3ccc(C(F)(F)F)cc3)c2)c1 [Example 82, 4-((5-(3-carbamoylphenyl)-1-(4-(trifluoromethyl)benzyl)-1H-indole-7-carboxamido)methyl)benzoic acid]
< 100 | O=C(O)c1ccc(CNC(=O)c2ccc(Nc3ccc(F)c(Cl)c3)c3ccn(Cc4ccc(C(F)(F)F)cc4)c23)cc1 [Example 70]
≥ 1000 | C[C@@H](NC(=O)c1ccc(-c2ccccc2)c2ccn(Cc3ccc(C(F)(F)F)cc3)c12)c1ccc(C(=O)O)cc1 [Example 29, (R)-4-(1-(4-phenyl-1-(4-(trifluoromethyl)benzyl)-1H-indole-7-carboxamido)ethyl) benzoic acid]
< 100 | C[C@H](NC(=O)c1cc(-c2ccc(F)cc2)cc2ccn(Cc3ccc(-c4ccc(F)cc4)cc3)c12)c1ccc(C(=O)O)cc1 [Example 213, (S)-4-(1-(1-((4′-fluoro-[1,1′-biphenyl]-4-yl)methyl)-5-(4-fluorophenyl)-1H-indole-7-carboxamido)ethyl)benzoic acid]
≥ 1000 | CN1CCN(c2ccc(C(=O)NCc3ccc(C(=O)O)cc3)c3c2ccn3Cc2ccc(C(F)(F)F)cc2)CC1 [Example 59, 4-((4-(4-methylpiperazin-1-yl)-1-(4-(trifluoromethyl)benzyl)-1H-indole-7-carboxamido)methyl)benzoic acid]
< 100 | C[C@H](NC(=O)c1cc(-c2ccccc2)cc2ccn(Cc3ccc(-c4ccc(F)cc4)cc3)c12)c1ccc(C(=O)O)cc1 [Example 212, (S)-4-(1-(1-((4′-fluoro-[1,1′-biphenyl]-4-yl)methyl)-5-phenyl-1H-indole-7-carboxamido)ethyl)benzoic acid]
< 100 | O=C(O)c1ccc(CNC(=O)c2cc(-c3ccc(F)cc3)cc3cnn(Cc4ccc(-c5ccc(F)cc5)cc4)c23)cc1 [Example 185, 4-((1-((4′-fluoro-[1,1′-biphenyl]-4-yl)methyl)-5-(4-fluorophenyl)-1H-indazole-7-carboxamido)methyl)benzoic acid]
100 to 1000 | Nc1ccccc1-c1cc(C(=O)NCc2ccc(C(=O)O)cc2)c2c(ccn2Cc2ccc(C(F)(F)F)cc2)c1 [Example 93, 4-((5-(2-aminophenyl)-1-(4-(trifluoromethyl)benzyl)-1H-indole-7-carboxamido)methyl)benzoic acid]
< 100 | C[C@H](NC(=O)c1cc(-c2ccccc2)cc2ccn(Cc3ccc4ccccc4c3)c12)c1ccc(C(=O)O)cc1 [Example 162, (S)-4-(1-(1-(naphthalen-2-ylmethyl)-5-phenyl-1H-indole-7-carboxamido)ethyl)benzoic acid]
< 100 | O=C(O)c1ccc(CNC(=O)c2cc(-c3ccc(F)c(F)c3)cc3ccn(Cc4ccc(C(F)(F)F)cc4)c23)cc1 [Example 8, 4-((5-(3,4-difluorophenyl)-1-(4-(trifluoromethyl)benzyl)-1H-indole-7-carboxamido)methyl)benzoic acid]
< 100 | O=C(O)c1ccc(CNC(=O)c2cc(-c3ccc(Cl)c(F)c3)cc3ccn(Cc4ccc(C(F)(F)F)cc4)c23)cc1 [Example 91, 4-((5-(4-chloro-3-fluorophenyl)-1-(4-(trifluoromethyl)benzyl)-1H-indole-7-carboxamido)methyl)benzoic]

Source: patent US20250179017A1 (GUANGDONG NEWOPP BIOPHARMACEUTICALS CO., LTD., priority 2022, published 2025)
